The values below come from patent US20210228545A1, “METHODS OF TREATING CONDITIONS RELATED TO THE S1P1 RECEPTOR” (Arena Pharmaceuticals, Inc., priority 2018, published 2021).

For data set [1], the target named is T1, OCT1 (Homo sapiens, UniProt O15245).
T1 construct: expressed in transfected cells; host or cells: HEK293
T1 sequence (O15245 1-554): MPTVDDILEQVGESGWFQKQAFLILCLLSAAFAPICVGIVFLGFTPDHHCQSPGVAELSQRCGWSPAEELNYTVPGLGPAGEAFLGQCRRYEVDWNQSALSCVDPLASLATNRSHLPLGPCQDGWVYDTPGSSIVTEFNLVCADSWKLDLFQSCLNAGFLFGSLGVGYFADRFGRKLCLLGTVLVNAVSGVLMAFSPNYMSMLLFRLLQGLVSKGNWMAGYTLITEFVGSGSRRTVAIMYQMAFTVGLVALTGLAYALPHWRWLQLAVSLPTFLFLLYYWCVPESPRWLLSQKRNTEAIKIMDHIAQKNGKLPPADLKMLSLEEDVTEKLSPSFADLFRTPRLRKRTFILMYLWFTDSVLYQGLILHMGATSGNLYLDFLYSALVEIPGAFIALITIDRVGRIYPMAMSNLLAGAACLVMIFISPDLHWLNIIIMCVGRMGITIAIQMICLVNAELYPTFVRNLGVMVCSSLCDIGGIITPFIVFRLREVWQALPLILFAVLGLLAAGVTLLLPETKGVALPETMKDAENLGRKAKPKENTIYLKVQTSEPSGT
Nature of the data set: Transporter inhibition, HEK293 cells. It counts as in vitro ADME.

The target of data set [2] is T2, OCT2 (Homo sapiens, UniProt O15244).
T2 construct: expressed in transfected cells; host or cells: HEK293
T2 sequence (O15244 1-555): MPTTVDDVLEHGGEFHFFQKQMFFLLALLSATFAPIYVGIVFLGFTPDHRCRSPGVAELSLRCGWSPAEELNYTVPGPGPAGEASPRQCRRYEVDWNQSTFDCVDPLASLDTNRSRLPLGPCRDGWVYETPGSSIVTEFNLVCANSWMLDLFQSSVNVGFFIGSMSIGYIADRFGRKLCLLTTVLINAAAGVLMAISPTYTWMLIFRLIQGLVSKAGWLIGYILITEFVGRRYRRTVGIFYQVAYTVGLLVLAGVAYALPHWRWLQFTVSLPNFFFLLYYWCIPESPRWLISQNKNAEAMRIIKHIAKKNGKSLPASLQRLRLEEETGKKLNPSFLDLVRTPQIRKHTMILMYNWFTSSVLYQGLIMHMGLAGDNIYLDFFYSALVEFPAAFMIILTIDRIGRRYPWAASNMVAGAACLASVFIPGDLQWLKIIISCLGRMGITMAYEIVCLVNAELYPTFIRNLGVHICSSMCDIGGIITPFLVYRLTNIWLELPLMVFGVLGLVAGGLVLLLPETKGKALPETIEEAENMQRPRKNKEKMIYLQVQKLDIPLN
Nature of the data set: Transporter substrate evaluation, HEK293 cells. Type of data set: in vitro ADME. Conditions: 1 and 10 μM.

For data set [3] the following is noted: in vivo.
For data set [4] the following is noted: male Sprague-Dawley rats; cited from earlier work.
The nature of data set [5]: Phase 1 single dosing study: safety and tolerability.
Data set [6] deals with T1, OCT1. Nature of the data set: Transporter substrate evaluation, HEK293 cells. It counts as in vitro ADME. To be noted: 1 and 10 μM.
Data set [7] has as its target T3, MATE1 (Homo sapiens, UniProt Q96FL8).
T3 construct: expressed in transfected cells; host or cells: HEK293
Nature of the data set: Transporter inhibition, HEK293 cells. It counts as in vitro ADME.

For data set [8], the target named is T4, OATP1B1 (Homo sapiens, UniProt Q9Y6L6).
T4 sequence (Q9Y6L6 1-691): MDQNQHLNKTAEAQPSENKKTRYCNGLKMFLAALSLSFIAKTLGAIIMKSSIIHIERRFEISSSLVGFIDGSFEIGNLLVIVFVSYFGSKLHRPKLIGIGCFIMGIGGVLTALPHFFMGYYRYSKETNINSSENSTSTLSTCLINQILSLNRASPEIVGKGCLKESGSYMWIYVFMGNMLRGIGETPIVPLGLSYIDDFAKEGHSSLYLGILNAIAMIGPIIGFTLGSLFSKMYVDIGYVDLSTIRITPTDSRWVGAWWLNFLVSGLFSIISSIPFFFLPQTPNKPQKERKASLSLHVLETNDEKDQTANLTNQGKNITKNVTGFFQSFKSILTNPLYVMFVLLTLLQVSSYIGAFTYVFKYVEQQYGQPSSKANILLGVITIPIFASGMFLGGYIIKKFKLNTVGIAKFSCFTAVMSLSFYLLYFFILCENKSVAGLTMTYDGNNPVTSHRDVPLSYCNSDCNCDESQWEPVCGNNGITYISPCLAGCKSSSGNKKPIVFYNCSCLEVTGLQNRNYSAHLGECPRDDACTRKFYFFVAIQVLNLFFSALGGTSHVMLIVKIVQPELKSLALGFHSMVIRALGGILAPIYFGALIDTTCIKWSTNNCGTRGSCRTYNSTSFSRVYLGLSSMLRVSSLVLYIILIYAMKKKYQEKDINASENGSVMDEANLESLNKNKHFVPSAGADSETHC
Nature of the data set: Transporter substrate evaluation, HEK293 cells. Also noted: expressed in transfected cells; host or cells: HEK293. Conditions: 1 and 10 μM. It counts as in vitro ADME.

Data set [9] addresses P-gp (Homo sapiens, UniProt P08183). The data set is described as follows: Transporter inhibition, Caco-2 cells. For orientation: Caco-2 cells form a polarised layer with tight junctions and transporters.
In data set [10] the test system is CYP2B6. The data set is described as follows: CYP induction in cultured human hepatocytes. It counts as in vitro ADME. To be noted: criteria >2-fold mRNA increase and ≥20% of positive control.

Structures are written as SMILES. “Also recorded” adds a separate entry of the source.

Usually IC50 stands for the concentration needed to halve the response being measured. Lower therefore signals higher potency.

T3 sequence (Q96FL8 whole entry): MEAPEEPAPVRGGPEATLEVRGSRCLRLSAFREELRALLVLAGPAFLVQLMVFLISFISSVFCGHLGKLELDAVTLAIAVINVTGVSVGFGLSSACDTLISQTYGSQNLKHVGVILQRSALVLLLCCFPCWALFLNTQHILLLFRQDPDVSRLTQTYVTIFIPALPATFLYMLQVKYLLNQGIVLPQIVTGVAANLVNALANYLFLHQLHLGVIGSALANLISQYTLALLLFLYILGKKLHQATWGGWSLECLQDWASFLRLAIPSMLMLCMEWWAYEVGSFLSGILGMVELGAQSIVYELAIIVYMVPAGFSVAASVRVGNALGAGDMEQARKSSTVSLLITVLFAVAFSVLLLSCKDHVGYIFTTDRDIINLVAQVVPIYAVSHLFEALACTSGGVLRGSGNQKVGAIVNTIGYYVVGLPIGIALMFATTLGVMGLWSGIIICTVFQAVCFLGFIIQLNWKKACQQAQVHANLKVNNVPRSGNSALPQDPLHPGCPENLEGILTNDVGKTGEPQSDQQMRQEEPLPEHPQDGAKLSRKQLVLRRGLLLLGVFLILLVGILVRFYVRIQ
Chain of P-gp (P08183 whole entry): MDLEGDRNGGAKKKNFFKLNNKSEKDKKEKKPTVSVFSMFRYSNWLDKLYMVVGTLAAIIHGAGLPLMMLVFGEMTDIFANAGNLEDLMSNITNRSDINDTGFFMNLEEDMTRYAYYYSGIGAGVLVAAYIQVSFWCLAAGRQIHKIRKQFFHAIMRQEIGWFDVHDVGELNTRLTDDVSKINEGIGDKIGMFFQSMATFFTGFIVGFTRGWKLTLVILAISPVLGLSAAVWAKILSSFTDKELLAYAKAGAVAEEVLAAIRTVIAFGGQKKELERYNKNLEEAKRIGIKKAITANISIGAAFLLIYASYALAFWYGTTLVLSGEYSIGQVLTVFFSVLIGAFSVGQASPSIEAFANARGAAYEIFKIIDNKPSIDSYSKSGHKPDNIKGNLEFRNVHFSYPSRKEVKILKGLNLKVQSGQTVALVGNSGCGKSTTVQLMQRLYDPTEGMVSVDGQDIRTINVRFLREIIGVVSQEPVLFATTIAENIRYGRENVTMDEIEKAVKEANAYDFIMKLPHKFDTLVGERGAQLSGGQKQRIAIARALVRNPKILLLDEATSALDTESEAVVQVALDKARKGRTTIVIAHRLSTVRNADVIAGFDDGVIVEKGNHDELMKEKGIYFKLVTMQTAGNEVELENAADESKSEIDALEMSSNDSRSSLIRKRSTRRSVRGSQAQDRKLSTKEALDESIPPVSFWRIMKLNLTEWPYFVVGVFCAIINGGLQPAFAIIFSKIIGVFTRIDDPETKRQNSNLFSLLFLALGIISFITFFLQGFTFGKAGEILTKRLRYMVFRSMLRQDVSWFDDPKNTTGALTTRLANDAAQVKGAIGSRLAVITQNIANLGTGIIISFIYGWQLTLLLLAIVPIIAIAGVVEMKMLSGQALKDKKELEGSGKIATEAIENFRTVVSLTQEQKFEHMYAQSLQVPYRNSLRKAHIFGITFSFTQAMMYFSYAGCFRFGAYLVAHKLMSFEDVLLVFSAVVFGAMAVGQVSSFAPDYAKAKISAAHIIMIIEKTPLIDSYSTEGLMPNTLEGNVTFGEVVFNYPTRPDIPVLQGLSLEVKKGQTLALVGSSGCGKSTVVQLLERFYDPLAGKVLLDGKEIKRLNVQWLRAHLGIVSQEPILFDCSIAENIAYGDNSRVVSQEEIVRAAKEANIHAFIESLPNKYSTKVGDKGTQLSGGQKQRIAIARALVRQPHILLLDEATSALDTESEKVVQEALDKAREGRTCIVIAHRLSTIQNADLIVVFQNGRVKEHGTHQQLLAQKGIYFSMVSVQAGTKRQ

As for `O=C(O)C[C@H]1CCc2c1[nH]c1ccc(OCc3ccc(C4CCCC4)c(C(F)(F)F)c3)cc21` [Compound 1, (R)-2-(7-(4-cyclopentyl-3-(trifluoromethyl)benzyloxy)-1,2,3,4-tetrahydrocyclopenta[b]indol-3-yl)acetic acid], the “Reduction of uptake rate of tetraethylammonium bromide into OCT1-expressing cells (inhibition)” value in [1] (1 and 10 μM) was “less than 50%”. In addition, the IC50 in [1] (HEK293 cells, [14C]-tetraethylammonium bromide (5 μM), 1 and 10 μM tested) is more than 10 µM; in data set [7] (HEK293 cells, [14C]-metformin (10 μM), 1 and 10 μM tested) it was more than 10 µM. Further, the “Potential substrate of OCT2” value in data set [2] (HEK293 cells) is “not a substrate of OCT2 and not a substrate and No”. Besides, the “Uptake ratio into OCT2-expressing cells” value in data set [2] (absence and presence of quinidine (300 μM)) is listed as “below two”. For the same molecule, in data set [3], the “Gender difference in mean plasma concentrations and exposure parameters” value is “only moderately higher in females compared to males”. Also, the Bradycardia result in [4] was “no or substantially no bradycardia”. Further, the “Deaths or serious adverse events” value in data set [5] (single doses 0.1 to 5 mg) is “no deaths or serious adverse events”. Further, in data set [5] (single dosing, L-arginine salt), the Maximum tolerated dose is 3 mg. Besides, the “Potential substrate of OCT1” value in data set [6] (HEK293 cells) was “not a substrate of OCT1 and not a substrate and No”. In addition, the “Uptake ratio into OCT1-expressing cells” value in data set [6] (absence and presence of quinidine (100 μM)) is “below two”. The “Inhibition of MATE1” value in [7] (up to 10 μM) is listed as “less than 50%”. Further, in data set [8] (HEK293 cells), the “Potential substrate of OATP1B1” value is “not a substrate of OATP1B1 and not a substrate and No”. In addition, the “Uptake ratio into OATP1B1-expressing cells” value in data set [8] (absence and presence of rifampin) was “less than two”. Also, the P-gp inhibition entry in data set [9] (10 μM Compound 1) is listed as “no P-gp inhibition”. Further, the “Reduction of efflux ratio of digoxin (10 μM) across Caco-2 cells” value in data set [9] (100 μM Compound 1) amounted to 50%. Besides, the “Induction potential for CYP2B6” value in [10] is reported as “no induction potential; also recorded: not a potential inducer”.
